Assay results published in patent US7528153B2, “Deoxynojirimycin analogues and their uses as glucosylceramidase inhibitors” (Genzyme Corporation, priority 2003, dated 2009).

Key:
[1] = biological target: Maltase; assay: In vitro inhibition of intestinal maltase; type: biochemical; settings: Table 1
[2] = Bioavailability; type: in vivo; settings: orally administered
[3] = Metabolism; settings: in vivo
[4] = Cellular toxicity; type: cell-based; settings: at doses envisioned during therapy
[5] = test system: MEB4 culture; assay: Pigmentation of MEB4 melanoma culture; type: cell-based, murine; settings: inhibition of glycosphingolipid synthesis in MEB4 culture
Excerpt: Two melanoma cultures, one dark pigmented (An) and the other very lightly pigmented (M14) show a clearly higher content of glucosylceramide (GlcCer) in the darkly pigmented culture both in the total cell extract and in a melanosomal fraction.

[6] = biological target: T1, A-Galactosidase (Homo sapiens, UniProt P06280); assay: In vitro inhibition of lysosomal A-galactosidase (4-MU substrate, purified enzyme from spleen); type: biochemical; settings: Table 3, read-out: Apparent in vitro IC50 value, A-Galactosidase
T1 construct: measured with appropriate 4-MU substrates using purified enzymes from spleen; from tissue; host or cells: spleen
T1 sequence (P06280 32-429): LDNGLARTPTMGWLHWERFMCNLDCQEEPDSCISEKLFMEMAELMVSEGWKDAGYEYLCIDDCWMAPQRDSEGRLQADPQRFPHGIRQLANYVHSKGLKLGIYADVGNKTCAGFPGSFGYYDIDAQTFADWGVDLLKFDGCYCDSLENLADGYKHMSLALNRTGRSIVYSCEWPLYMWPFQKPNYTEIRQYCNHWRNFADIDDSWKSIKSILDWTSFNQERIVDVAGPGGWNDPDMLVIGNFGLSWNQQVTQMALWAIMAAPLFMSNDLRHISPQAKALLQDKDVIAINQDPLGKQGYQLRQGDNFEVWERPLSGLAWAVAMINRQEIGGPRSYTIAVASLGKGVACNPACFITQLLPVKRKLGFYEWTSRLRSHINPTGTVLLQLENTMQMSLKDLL

[7] = biological target: Hexosaminidase; assay: In vitro inhibition of lysosomal hexosaminidase (4-MU substrate, purified enzyme from spleen); type: biochemical; settings: Table 3, read-out: Apparent in vitro IC50 value, Hexosaminidase
[8] = biological target: T2, b-Galactosidase (Homo sapiens, UniProt P16278); assay: In vitro inhibition of lysosomal b-galactosidase (4-MU substrate, purified enzyme from spleen); type: biochemical; settings: Table 3, read-out: Apparent in vitro IC50 value, A b-Galactosidase
T2 construct: measured with appropriate 4-MU substrates using purified enzymes from spleen; from tissue; host or cells: spleen
T2 sequence (P16278 29-677): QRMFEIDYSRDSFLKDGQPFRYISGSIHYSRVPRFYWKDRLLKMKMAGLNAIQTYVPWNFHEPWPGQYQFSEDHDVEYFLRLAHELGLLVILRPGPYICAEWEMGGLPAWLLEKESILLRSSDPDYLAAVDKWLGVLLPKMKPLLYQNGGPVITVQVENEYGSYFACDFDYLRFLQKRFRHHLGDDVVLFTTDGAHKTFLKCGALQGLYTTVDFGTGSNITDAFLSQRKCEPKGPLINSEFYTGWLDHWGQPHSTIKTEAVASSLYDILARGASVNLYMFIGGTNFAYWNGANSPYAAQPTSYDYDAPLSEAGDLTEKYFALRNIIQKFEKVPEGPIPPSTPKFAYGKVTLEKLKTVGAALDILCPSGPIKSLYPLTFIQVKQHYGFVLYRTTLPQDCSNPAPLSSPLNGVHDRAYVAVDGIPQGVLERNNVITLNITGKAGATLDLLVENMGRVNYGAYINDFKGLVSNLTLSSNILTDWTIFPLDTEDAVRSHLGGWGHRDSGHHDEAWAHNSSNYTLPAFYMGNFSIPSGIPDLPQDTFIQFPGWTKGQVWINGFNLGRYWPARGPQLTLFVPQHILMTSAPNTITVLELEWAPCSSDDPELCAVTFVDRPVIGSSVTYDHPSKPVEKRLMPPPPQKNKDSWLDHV

[9] = test system: human melanocytes; assay: Pigmentation / melanin production in melanocytes; type: cell-based; settings: melanocytes of lighter and darker skin type, within a single culture passage
Excerpt: Iminosugars were designed that harbour optimal features for use in skin. Ceramide and glucosylceramide are important structural components of the stratum corneum and regulate water permeability of the skin. It is known that glucosylceramides together with other polar lipids are secreted into the extracellular space of the stratum corneum by lamellar bodies and are subsequently processed to ceramides. […] Iminosugars should therefore not interfere with the crucial generation of ceramide from glucosylceramide catalysed by lysosomal glucocerebrosidase.
The pharmaceutical application of the deoxynojirimycin analogues according to the invention and will be in post-inflammatory hyperpigmentation and skin inflammatory conditions. There is strong evidence that when administered systemically these deoxynojirimycin analogues have strong anti-inflammatory activity in vivo.

[10] = biological target: T3, lysosomal alfa-glucosidase (Homo sapiens, UniProt P10253); assay: In vitro inhibition of lysosomal alfa-glucosidase (4-MU substrate, purified enzyme from spleen); type: biochemical; settings: Table 3, read-out: Apparent in vitro IC50 value, a-Glucosidase
T3 construct: measured with appropriate 4-MU substrates using purified enzymes from spleen; from tissue; host or cells: spleen

[11] = test system: glycosphingolipid synthesis; settings: 100 mg TID, Gaucher patients; cited from earlier work

| Compound | IC50 [1] [µM] | Bioavailability [2] | Metabolism [3] | Cellular toxicity [4] | Pigmentation of MEB4 culture [5] | IC50 [6] [µM] | IC50 [7] [µM] | IC50 [8] [µM] | Pigmentation / melanin production in melanocytes [9] | Pigmentation / melanin production in melanocytes ([9]; listed as ido-N-(5-adamantane-1-yl-methoxy-pentyl)deoxynojirimycin) | IC50 [10] [µM] | Inhibition of glycosphingolipid synthesis [11] |
| --- | --- | --- | --- | --- | --- | --- | --- | --- | --- | --- | --- | --- |
| OC[C@@H]1[C@@H](O)[C@H](O)[C@@H](O)CN1CCCCCOCC12CC3CC(CC(C3)C1)C2 [N-(5-adamantane-1-yl-methoxy-pentyl)deoxynojirimycin, reference compound] | > 25 | highly bioavailable | metabolically inert | no intrinsic cellular toxicity | – | – | – | – | – | – | – | – |
| OC[C@@H]1[C@H](O)[C@H](O)[C@H](O)CN1CCCCCOCC12CC3CC(CC(C3)C1)C2 [N-(adamantane-1-yl-methoxypentyl)-L-ido-deoxynojirimycin] | > 100 | well bioavailable | – | no cellular toxicity | loss of pigmentation | > 100 | > 100 | > 100 | reduce melanin production | significant decrease in pigmentation | – | – |
| CCCCN1C[C@H](O)[C@@H](O)[C@H](O)[C@H]1CO [N-butyl-deoxynojirimycin, reference compound] | – | – | – | – | – | – | > 100 | > 100 | – | – | 0.8 | 20-30% |
